In patent US20260097047A1, “Small molecule inhibitors of the ribosome biogenesis factor NVL2” (Board of Regents, The University of Texas System, priority 2023, published 2026):
Like-named read-outs stand apart in the source and are kept apart here.

System: HCT116 cells
Assay: Cell viability assay (CellTiter-Glo, 72 hours) in HCT116 human colorectal cancer cells
Format: cell-based
Method: Cell culture: The HCT116 cell line was obtained from ATCC and cultured in Dulbecco's Modified Eagle's Medium (DMEM)-high glucose (Sigma Aldrich #D5796) supplemented with 10% fetal bovine serum (FBS) (Sigma-Aldrich #F2442) and 2 mM L-Glutamine (Sigma Aldrich #G7513). Cells were cultured at 37° C. in 5% CO2. The identity of all cell lines was confirmed by short tandem repeat (STR) analysis and confirmed to be mycoplasma-free using a PCR based assay (Genatlantis).
Cell viability assay: In 96-well assay plates (Corning #2903), 2,000 cells were plated per well in 100 μL of medium and allowed to adhere overnight. The next day, compounds suspended in DMSO were dispensed to the assayed wells using a D300e Digital Dispenser (Tecan). All wells were normalized to 0.5% DMSO. 72 hours after incubation at 37° C. in 5% CO2, cell viability was assayed using an ATP-based luminescent viability assay, CellTiter-Glo (Promega #G8462). Substrate was mixed 1:1 with phosphate-buffered saline (PBS) supplemented with 1% Triton X-100, and 40 μL of this mixture was added to the assay wells. Plates were shaken on a microplate shaker for 10 minutes at room temperature. Luminescence (CellTiter-Glo) was recorded using a Synergy 2 microplate reader (BioTek). In Prism 9 software (GraphPad), ten-point dose response curves were plotted with baseline-correction to the vehicle control well, and IC50 values were calculated by curve fitting using asymmetric (five parameter), least squares fit.

[1] = Table 8, analogs of scaffold drawing 43 defined by R^2, R^3, X/Y, W, read-out: Activity (IC50 class, cell viability assay)
[2] = Table 7, cell viability assay, CellTiter-Glo, 72 hours, scaffold drawing 42 with R^2, R^3, X/Y, Z, read-out: Activity

Compound	IC50 [1] [nM]	IC50 [2] [nM]
COC12CC(C(=O)Nc3cnc4c(c3)Sc3ccccc3C(=O)N4CC#CCF)(C1)C2	< 500	–
O=C(Nc1cnc2c(c1)Sc1ccccc1C(=O)N2CC#CCl)C1CC2(CC(=NO)C2)C1 (stereo not drawn)	< 500	–
O=C(Nc1ccc2c(c1)Sc1cc(Cl)ccc1C(=O)N2CC#CCl)C1CC2(CC(=NO)C2)C1 (stereo not drawn)	< 500	–
O=C(Nc1cnc2c(c1)Sc1cc(Cl)ccc1C(=O)N2CC#CCl)C1CC2(CC(=NO)C2)C1 (stereo not drawn)	< 500	–
O=C(Nc1ccc2c(c1)Sc1ccc(F)cc1C(=O)N2CC#CCl)C1CC2(CC(=NO)C2)C1 (stereo not drawn)	< 500	–
CON=C1CC2(C1)CC(C(=O)Nc1ccc3c(c1)Sc1cc(Cl)ccc1C(=O)N3CC#CCl)C2 (stereo not drawn)	< 500	–
CON=C1CC2(C1)CC(C(=O)Nc1ccc3c(c1)Sc1ccc(F)cc1C(=O)N3CC#CCl)C2 (stereo not drawn)	< 500	–
CON=C1CC2(C1)CC(C(=O)Nc1cnc3c(c1)Sc1cc(Cl)ccc1C(=O)N3CC#CCl)C2 (stereo not drawn)	< 500	–
CON=C1CC2(C1)CC(C(=O)Nc1ccc3c(c1)Sc1ccccc1C(=O)N3CC#CCl)C2 (stereo not drawn)	< 500	–
CON=C1CC2(C1)CC(C(=O)Nc1cnc3c(c1)Sc1ccccc1C(=O)N3CC#CCl)C2 (stereo not drawn)	< 500	–
C#CCN1C(=O)c2cc(F)ccc2Sc2cc(NC(=O)C3CC4(CC(=NO)C4)C3)ccc21 (stereo not drawn)	< 500	–
C#CCN1C(=O)c2ccccc2Sc2cc(NC(=O)C3CC4(CC(=NO)C4)C3)cnc21 (stereo not drawn)	< 500	–
C#CCN1C(=O)c2ccc(Cl)cc2Sc2cc(NC(=O)C3CC4(CC(=NO)C4)C3)ccc21 (stereo not drawn)	< 500	–
C#CCN1C(=O)c2ccccc2Sc2cc(NC(=O)C3CC4(CC(=NO)C4)C3)ccc21 (stereo not drawn)	< 500	–
C#CCN1C(=O)c2ccc(Cl)cc2Sc2cc(NC(=O)C3CC4(CC(=NOC)C4)C3)ccc21 (stereo not drawn)	< 500	–
C#CCN1C(=O)c2cc(F)ccc2Sc2cc(NC(=O)C3CC4(CC(=NOC)C4)C3)ccc21 (stereo not drawn)	< 500	–
C#CCN1C(=O)c2ccccc2Sc2cc(NC(=O)C3CC4(CC(=NOC)C4)C3)cnc21 (stereo not drawn)	< 500	–
CC#CCN1C(=O)c2ccccc2Sc2cc(NC(=O)C3CC4(COC4)C3)cnc21	< 500	–
CC#CCN1C(=O)c2ccc(Cl)cc2Sc2cc(NC(=O)C3CC4(COC4)C3)cnc21	< 500	–
CC#CCN1C(=O)c2ccc(Cl)cc2Sc2cc(NC(=O)C3CC4(COC4)C3)ccc21	< 500	–
CC#CCN1C(=O)c2ccccc2Sc2cc(NC(=O)C34CC(C(F)(F)F)(C3)C4)ccc21	500 to 1000	–

Compound	IC50 [1] [nM]	IC50 [2] [nM]
CC#CCN1C(=O)c2ccccc2Sc2cc(NC(=O)C34CC(C#N)(C3)C4)ccc21	< 500	–
CC#CCN1C(=O)c2ccccc2Sc2cc(NC(=O)C34CC(C#N)(C3)C4)cnc21	< 500	–
CC#CCN1C(=O)c2ccccc2Sc2cc(NC(=O)C34CC(F)(C3)C4)ccc21	< 500	–
CC#CCN1C(=O)c2ccccc2Sc2cc(NC(=O)C34CC(O)(C3)C4)cnc21	< 500	–
CC#CCN1C(=O)c2ccc(Cl)cc2Sc2cc(NC(=O)C34CC(O)(C3)C4)ccc21	< 500	–
CC#CCN1C(=O)c2cc(F)ccc2Sc2cc(NC(=O)C34CC(O)(C3)C4)cnc21	< 500	–
CC#CCN1C(=O)c2ccccc2Sc2cc(NC(=O)c3ccc4oc(=O)n(C)c4c3)cnc21	< 500	–
CC#CCN1C(=O)c2ccccc2Sc2cc(NC(=O)C34CC(C)(C3)C4)ccc21	< 500	–
CC#CCN1C(=O)c2ccccc2Sc2cc(NC(=O)C34CC(C)(C3)C4)cnc21	< 500	–
CC#CCN1C(=O)c2ccc(Cl)cc2Sc2cc(NC(=O)C34CC(OC)(C3)C4)cnc21	< 500	–
CC#CCN1C(=O)c2cc(F)ccc2Sc2cc(NC(=O)C34CC(OC)(C3)C4)cnc21	< 500	–
CC#CCN1C(=O)c2ccccc2Sc2cc(NC(=O)C34CC(OC)(C3)C4)ccc21	< 500	–
CC#CCN1C(=O)c2ccccc2Sc2cc(NC(=O)C34CC(OC)(C3)C4)cnc21	< 500	–
CC#CCN1C(=O)c2cc(F)ccc2Sc2cc(NC(=O)C3CC4(CC(O)C4)C3)cnc21 (stereo not drawn)	< 500	–
CC#CCN1C(=O)c2ccc(Cl)cc2Sc2cc(NC(=O)C3CC4(CC(O)C4)C3)ccc21 (stereo not drawn)	< 500	–
CC#CCN1C(=O)c2ccc(Cl)cc2Sc2cc(NC(=O)C3CC4(CC(=NO)C4)C3)ccc21 (stereo not drawn)	< 500	–
CC#CCN1C(=O)c2ccccc2Sc2cc(NC(=O)C3CC4(CC(=NO)C4)C3)cnc21 (stereo not drawn)	< 500	–
CC#CCN1C(=O)c2ccc(F)cc2Sc2cc(NC(=O)C3CC4(CC(=NO)C4)C3)cnc21 (stereo not drawn)	< 500	–
CC#CCN1C(=O)c2cc(F)ccc2Sc2cc(NC(=O)C3CC4(CC(=NO)C4)C3)cnc21 (stereo not drawn)	< 500	–
CC#CCN1C(=O)c2ccccc2Sc2cc(NC(=O)C3CC4(CC(=NOC)C4)C3)cnc21 (stereo not drawn)	< 500	–
CC#CCN1C(=O)c2ccc(Cl)cc2Sc2cc(NC(=O)C3CC4(CC(=O)C4)C3)ccc21	< 500	–

Compound	IC50 [1] [nM]	IC50 [2] [nM]
CC#CCN1C(=O)c2cc(F)ccc2Sc2cc(NC(=O)C3CC4(CC(=O)C4)C3)ccc21	< 500	–
CC#CCN1C(=O)c2ccccc2Sc2cc(NC(=O)C3CC4(CC(=O)C4)C3)cnc21	< 500	–
CC#CCN1C(=O)c2ccccc2Sc2cc(NC(=O)c3ccc4scnc4c3)ccc21	< 500	–
CC#CCN1C(=O)c2ccccc2Sc2cc(NC(=O)C34CC(C3)C4)ccc21	< 500	–
CC#CCN1C(=O)c2ccccc2Sc2cc(NC(=O)C34CC(C3)C4)cnc21	< 500	–
CC#CCN1C(=O)c2ccccc2Sc2cc(NC(=O)C3CC4(CCC4)C3)ccc21	< 500	–
CC#CCN1C(=O)c2ccc(Cl)cc2Sc2cc(NC(=O)C3CCCO3)ccc21 (stereo not drawn)	< 500	–
CC#CCN1C(=O)c2ccc(Cl)cc2Sc2cc(NC(=O)C3CCCO3)cnc21 (stereo not drawn)	< 500	–
CC#CCN1C(=O)c2cc(F)ccc2Sc2cc(NC(=O)C3CCCO3)ccc21 (stereo not drawn)	< 500	–
CC#CCN1C(=O)c2ccc(Cl)cc2Sc2cc(NC(=O)C3CCOC3)ccc21 (stereo not drawn)	< 500	–
CC#CCN1C(=O)c2ccc(Cl)cc2Sc2cc(NC(=O)C3CCOC3)cnc21 (stereo not drawn)	< 500	–
O=C(Nc1ccc2c(c1)Sc1ccccc1C(=O)N2CC#CC1CC1)C1CC2(COC2)C1	< 500	–
O=C(Nc1cnc2c(c1)Sc1ccccc1C(=O)N2CC#CC1CC1)C1CC2(COC2)C1	< 500	–
O=C(Nc1ccc2c(c1)Sc1ccc(F)cc1C(=O)N2CC#CC1CC1)C1CC2(COC2)C1	< 500	–
N#CC12CC(C(=O)Nc3cnc4c(c3)Sc3ccccc3C(=O)N4CC#CC3CC3)(C1)C2	< 500	–
O=C1c2ccccc2Sc2cc(NC(=O)C34CC(F)(C3)C4)cnc2N1CC#CC1CC1	< 500	–
O=C1c2cc(F)ccc2Sc2cc(NC(=O)C34CC(O)(C3)C4)cnc2N1CC#CC1CC1	< 500	–
CC12CC(C(=O)Nc3cnc4c(c3)Sc3ccccc3C(=O)N4CC#CC3CC3)(C1)C2	< 500	–
COC12CC(C(=O)Nc3cnc4c(c3)Sc3ccc(F)cc3C(=O)N4CC#CC3CC3)(C1)C2	< 500	–
COC12CC(C(=O)Nc3cnc4c(c3)Sc3ccccc3C(=O)N4CC#CC3CC3)(C1)C2	< 500	–
O=C(Nc1ccc2c(c1)Sc1ccc(F)cc1C(=O)N2CC#CC1CC1)C1CC2(CC(O)C2)C1 (stereo not drawn)	< 500	–

Compound	IC50 [1] [nM]	IC50 [2] [nM]
O=C(Nc1cnc2c(c1)Sc1ccc(F)cc1C(=O)N2CC#CC1CC1)C1CC2(CC(O)C2)C1 (stereo not drawn)	< 500	–
O=C(Nc1cnc2c(c1)Sc1ccccc1C(=O)N2CC#CC1CC1)C1CC2(CC(O)C2)C1 (stereo not drawn)	< 500	–
O=C(Nc1cnc2c(c1)Sc1ccccc1C(=O)N2CC#CC1CC1)C1CC2(CC(=NO)C2)C1 (stereo not drawn)	< 500	–
CON=C1CC2(C1)CC(C(=O)Nc1ccc3c(c1)Sc1ccc(F)cc1C(=O)N3CC#CC1CC1)C2 (stereo not drawn)	< 500	–
CON=C1CC2(C1)CC(C(=O)Nc1cnc3c(c1)Sc1ccc(F)cc1C(=O)N3CC#CC1CC1)C2 (stereo not drawn)	< 500	–
CON=C1CC2(C1)CC(C(=O)Nc1cnc3c(c1)Sc1ccccc1C(=O)N3CC#CC1CC1)C2 (stereo not drawn)	< 500	–
O=C1CC2(C1)CC(C(=O)Nc1cnc3c(c1)Sc1ccccc1C(=O)N3CC#CC1CC1)C2	< 500	–
O=C1c2ccccc2Sc2cc(NC(=O)C34CC(C3)C4)cnc2N1CC#CC1CC1	< 500	–
O=C(Nc1cnc2c(c1)Sc1ccccc1C(=O)N2CC#CC1CC1)C1CCOC1 (stereo not drawn)	< 500	–
C=CCN1C(=O)c2ccc(F)cc2Sc2cc(NC(=O)c3ccc4scnc4c3)ccc21	–	< 500
CC=CCN1C(=O)c2ccccc2Sc2cc(NC(=O)c3ccc4scnc4c3)ccc21	–	< 500
C#CCOCCN1C(=O)c2ccc(F)cc2Sc2cc(NC(=O)c3ccc4scnc4c3)ccc21	–	< 500
COCCN1C(=O)c2ccccc2Sc2cc(NC(=O)c3ccc4oc(C)nc4c3)ccc21	–	< 500
COCCN1C(=O)c2ccccc2Sc2cc(NC(=O)c3ccc4oc(=O)[nH]c4c3)ccc21	–	1000 to 5000
COCCN1C(=O)c2ccccc2Sc2cc(NC(=O)c3ccc4oc(=O)n(C)c4c3)ccc21	–	500 to 1000
COCCN1C(=O)c2ccccc2Sc2cc(NC(=O)c3ccc4ocnc4c3)ccc21	–	< 500
COCCN1C(=O)c2ccccc2Sc2cc(NC(=O)c3ccc4ncoc4c3)ccc21	–	1000 to 5000
COCCN1C(=O)c2ccccc2Sc2cc(NC(=O)c3ccc4nccn4c3)ccc21	–	1000 to 5000
COCCN1C(=O)c2ccccc2Sc2cc(NC(=O)c3ccn4ccnc4c3)ccc21	–	1000 to 5000
COCCN1C(=O)c2ccccc2Sc2cc(NC(=O)C3CCOCC3)ccc21	–	1000 to 5000
C=CCCCOCCN1C(=O)c2ccccc2Sc2cc(NC(=O)c3ccoc3)ccc21	–	< 500
